The source of these data is PubChem BioAssay (NCI).

Structures are written as SMILES.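 Cultured in 96-well plates, cells were exposed to test compound for 48 hours across five concentrations. GI50 is the concentration that inhibits growth by half. TGI is the concentration that stops growth completely.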

Test systems include BT-549 breast; CCRF-CEM leukemia; HT29 colon; KM12 colon; M14 melanoma; MOLT-4 leukemia; NCI-H460 lung; NCI-H522 lung; PC-3 prostate; T-47D breast.
Holding throughout (assay): growth of human tumour cells (NCI), 48 h

On to `O=[N+]([O-])c1cc(Cl)c2[nH]c3c(Cl)cc([N+](=O)[O-])cc3c2c1`, for which the GI50 in the assay on BT-549 breast is 0.326 µM; with CCRF-CEM leukemia it was 0.391 µM; with HT29 colon, 0.431 µM; in the assay on KM12 colon, 0.354 µM; with M14 melanoma, 0.458 µM; in the assay with MOLT-4 leukemia it was 0.329 µM. Besides, the GI50 in the assay on NCI-H460 lung was 0.311 µM; in the assay on NCI-H522 lung it was 0.286 µM; in the assay on PC-3 prostate, 0.379 µM; in the assay on T-47D breast, 0.254 µM. In addition, the TGI with BT-549 breast was 5.34 µM; in the assay with CCRF-CEM leukemia, 24.1 µM; in the assay with HT29 colon it was above 100 µM; in the assay with KM12 colon, above 100 µM; in the assay with M14 melanoma it was above 54.7 µM; with MOLT-4 leukemia it was above 100 µM. Further, the TGI in the assay with NCI-H460 lung, with NCI-H522 lung, in the assay with PC-3 prostate and in the assay on T-47D breast was above 100 µM each time.
As for `NCCSSCCN`, the TGI with BT-549 breast, in the assay on CCRF-CEM leukemia, in the assay on HT29 colon, in the assay with KM12 colon, in the assay with M14 melanoma and with MOLT-4 leukemia was above 100 µM in each case. For the same molecule, the TGI in the assay with NCI-H460 lung, with NCI-H522 lung, in the assay on PC-3 prostate and in the assay with T-47D breast was above 100 µM each time.
For `COc1cc2ncn(-c3cc(OCc4ccccc4C(F)(F)F)c(C(=O)N(C)C)s3)c2cc1OC`, the GI50 with BT-549 breast was above 21.9 µM; with CCRF-CEM leukemia, above 22.1 µM; in the assay on HT29 colon, above 25 µM; with KM12 colon it was above 25 µM; in the assay with M14 melanoma, above 25 µM; with MOLT-4 leukemia, above 25 µM. Moreover, the GI50 with NCI-H460 lung was above 25 µM; in the assay with NCI-H522 lung, 17.3 µM; with PC-3 prostate, above 19 µM; with T-47D breast, 7.02 µM. Besides, the TGI in the assay with BT-549 breast, in the assay with CCRF-CEM leukemia, in the assay on HT29 colon, in the assay with KM12 colon, in the assay with M14 melanoma and with MOLT-4 leukemia was above 25 µM each time. In addition, the TGI was above 25 µM with NCI-H460 lung, above 25 µM in the assay on NCI-H522 lung, above 25 µM in the assay on PC-3 prostate and above 17 µM with T-47D breast.
`CS(=O)(=O)CCNCc1cc(-c2cc3c(Nc4ccc(OCc5cccc(F)c5)c(Cl)c4)ncnc3s2)cs1`: the GI50 in the assay with BT-549 breast was 17.2 µM; in the assay with CCRF-CEM leukemia, 11 µM; with HT29 colon, 5.41 µM; with KM12 colon, 6.55 µM; in the assay with M14 melanoma it was 13.4 µM; with MOLT-4 leukemia it was 8.9 µM. Further, the GI50 was 9.64 µM in the assay with NCI-H460 lung, 9.64 µM in the assay on NCI-H522 lung, 13 µM in the assay with PC-3 prostate and 3 µM in the assay on T-47D breast. Also, the TGI in the assay on BT-549 breast was above 25 µM; with CCRF-CEM leukemia, above 25 µM; with HT29 colon, 13.1 µM; in the assay on KM12 colon it was above 25 µM; with M14 melanoma, above 25 µM; in the assay on MOLT-4 leukemia, above 25 µM. In addition, the TGI with NCI-H460 lung was above 25 µM; in the assay on NCI-H522 lung, above 25 µM; in the assay on PC-3 prostate it was above 25 µM; with T-47D breast, above 23.6 µM.
`O=C(/C=C/C12c3ccccc3C(c3ccccc31)C1C(=O)NC(=O)C12)c1ccc(Cl)cc1Cl` (stereo not given): the GI50 in the assay on BT-549 breast is 1.66 µM; with CCRF-CEM leukemia, 1.89 µM; with HT29 colon it was 2.02 µM; in the assay on KM12 colon it was 1.76 µM; in the assay on M14 melanoma, 1.83 µM; in the assay with MOLT-4 leukemia, 1.77 µM. For the same molecule, the GI50 was 1.85 µM in the assay with NCI-H460 lung, 1.69 µM with NCI-H522 lung, 1.55 µM in the assay on PC-3 prostate and 2.48 µM with T-47D breast. For the same molecule, the TGI came out at 3.27 µM with BT-549 breast; 7.23 µM in the assay on CCRF-CEM leukemia; 4.41 µM in the assay on HT29 colon; 3.43 µM in the assay on KM12 colon; 3.54 µM in the assay on M14 melanoma; 5.58 µM with MOLT-4 leukemia. Moreover, the TGI in the assay on NCI-H460 lung worked out at 3.82 µM; in the assay on NCI-H522 lung, 3.41 µM; in the assay with PC-3 prostate, 3.08 µM; in the assay with T-47D breast it was 9.59 µM.
As to `C=CCn1c(C)nc2ccc(Nc3nc(Nc4ccc(F)cc4)nc4ccccc34)cc21`, the GI50 was 3.35 µM with BT-549 breast; 3.01 µM in the assay on CCRF-CEM leukemia; 3 µM in the assay with HT29 colon; 4.07 µM in the assay on KM12 colon; 3.26 µM with M14 melanoma; 1.77 µM with MOLT-4 leukemia. Also, the GI50 is 3.11 µM in the assay with NCI-H460 lung, 3.12 µM with NCI-H522 lung, 3.14 µM in the assay on PC-3 prostate and 1.7 µM with T-47D breast. The TGI is 18.1 µM in the assay on BT-549 breast; 11.7 µM in the assay with CCRF-CEM leukemia; 13.3 µM with HT29 colon; 16.4 µM in the assay on KM12 colon; 14.2 µM in the assay on M14 melanoma; 6.27 µM with MOLT-4 leukemia. For the same molecule, the TGI in the assay with NCI-H460 lung was 14.5 µM; in the assay with NCI-H522 lung it was 13.4 µM; with PC-3 prostate, 14.7 µM; with T-47D breast, 4.23 µM.
On to `O=C(Nc1cc(C(F)(F)F)ccc1Cl)c1ccc(NC2=C(Cl)C(=O)N(Cc3ccccc3)C2=O)cc1`, for which the GI50 with BT-549 breast is 15 µM; in the assay with CCRF-CEM leukemia, 1.42 µM; in the assay on HT29 colon, 26.6 µM; in the assay with KM12 colon, 23.7 µM; with M14 melanoma, 37.6 µM; in the assay on MOLT-4 leukemia, 3.53 µM. Moreover, the GI50 was 34.3 µM in the assay on NCI-H460 lung, 11.1 µM with NCI-H522 lung, 14.8 µM in the assay on PC-3 prostate and 14.1 µM in the assay on T-47D breast. The TGI in the assay on BT-549 breast is 39.7 µM; in the assay on CCRF-CEM leukemia, 11.7 µM; with HT29 colon it was above 100 µM; in the assay with KM12 colon, 74.9 µM; in the assay on M14 melanoma, above 100 µM; in the assay with MOLT-4 leukemia, 77.7 µM. For the same molecule, the TGI in the assay on NCI-H460 lung was above 100 µM; in the assay with NCI-H522 lung, 28 µM; in the assay with PC-3 prostate, 37.8 µM; in the assay on T-47D breast, above 100 µM.
For `Cc1ncc(C(=O)Nc2ccc(CN3CCN(C)CC3)c(C(F)(F)F)c2)cc1C#Cc1cnc2cccnn12`, the GI50 in the assay on BT-549 breast was 1.23 µM; in the assay with CCRF-CEM leukemia it was 0.199 µM; in the assay on HT29 colon, 0.199 µM; with KM12 colon, 0.005 µM; in the assay on M14 melanoma, 0.163 µM; with MOLT-4 leukemia, 0.156 µM. Also, the GI50 is 0.501 µM with NCI-H460 lung, 0.58 µM in the assay with NCI-H522 lung, 0.651 µM in the assay on PC-3 prostate and 1.91 µM in the assay on T-47D breast. The TGI in the assay on BT-549 breast worked out at 3.72 µM; in the assay with CCRF-CEM leukemia, 20.7 µM; with HT29 colon it was 14.5 µM; with KM12 colon, 2.64 µM; in the assay with M14 melanoma, 0.732 µM; in the assay with MOLT-4 leukemia, 5.32 µM. For the same molecule, the TGI is 1.53 µM in the assay on NCI-H460 lung, 2.4 µM in the assay on NCI-H522 lung, 4.79 µM in the assay with PC-3 prostate and 12.3 µM with T-47D breast.
